Experimental data taken from patent publication US20200345746A1, “Oxazine Derivative for Use in the Prevention of Alzheimer's Disease in at Risk Patents” (Novartis AG, priority 2016, published 2020).

What was measured:
Aβ40 = test: First-in-human study: Aβ40 in CSF; type: in vivo
Description: (§1) The purpose of this study was to determine the single and multiple maximum tolerated dose of Compound 1 and to assess the pharmacokinetic/pharmacodynamic (PK/PD) relationship using Aβ in CSF as primary PD biomarker.
Pharmacodynamic assessments using Aβ concentrations in CSF as primary biomarker of drug action were also been applied in healthy elderly subjects. Dose-dependent lowering of Aβ40 concentrations was determined up to approximately 80% and 90% after single and multiple dosing, respectively (Tables 14 and 15, FIG. 9).
(§2) In the completed first-in-human and 3-month dose-ranging safety and tolerability clinical studies described in Examples 5 and 6, Aβ concentrations in CSF were obtained by means of lumbar punctures before the first dose (baseline) and respectively after 2 weeks and 3 months of multiple dosing. ApoE4 genotype also was obtained in the subjects who consented. The percent change from baseline in Aβ40 and Aβ42 concentrations was calculated in subjects who took the study treatment and had no major protocol deviation with potential impact on the evaluation of the pharmacodynamic effect. Tables 18 to 21 below provide summary statistics of the percent change from baseline by treatment group and ApoE genotype (E4 heterozygotes versus E4 non-carriers). Only one subject with CSF data was E4 homozygote (from the 3-month dose-ranging safety and tolerability study).

Aβ42 [1] = test: First-in-human study: Aβ42 in CSF; type: in vivo; conditions: 2 weeks
Excerpt: as §1, §2

Aβ42 [2] = test: 3-month dose-ranging study: Aβ42 in CSF; type: in vivo, human; conditions: for Aβ42 % change from baseline, Mean (SD) / Aβ42 % change from baseline, Median: CSF, 3 months
Excerpt: This study is listed in ClinicalTrials.gov under the NCT02576639 Identifier code.
The primary purpose of this study was to expand on previous safety and tolerability data obtained over 2-week and 4-week duration in the first in human study and thereby allow initiation of future long-term efficacy trials in subjects at risk of AD. In addition, data relevant for Pharmacokinetic/Pharmacodynamic modeling was obtained in order to support dose selection decisions for future efficacy studies.
as §2

Aβ42 [3] = test: Formic acid soluble Aβ42 in APP23 mouse forebrain; type: in vivo
Description: Frozen mouse forebrains were weighed and homogenized in 9 volumes (w/v) of ice-cold TBS-Complete (20 mM Tris-HCl pH 7.4, 137 mM NaCl, 1× Complete [Protease Inhibitor Cocktail Tablets: 1 836 145, Roche Diagnostics GmbH, Penzberg, Germany]) by sonication (90% duty cycle, output control 5, 40-55 pulses, [Sonifier 450, Branson]). After homogenization several 50 μl aliquots were prepared for analysis and were stored at −80° C.
Fifty microliter of forebrain homogenate was mixed with 116.6 μl 100% formic acid, resulting in a final formic acid concentration of 70%. Samples were stored on ice and vortexed every 5 minutes. For neutralization, 50 μl of the mixture were pipetted into a new tube, and 950 μl of 1 M Tris base, containing 1× Complete Protease inhibitor, was added. Tubes were stored at room temperature overnight and then centrifuged for 15 minutes at 14000 rpm in an Eppendorf Microzentrifuge at 4° C. From the top layer, 100 μl are removed and mixed with 100 μl of 3% Blocker A solution (part of the MesoScale assay kit). This sample was either directly applied to the assay plate (dilution 1:1332) or further diluted in 1% Blocker A solution.

SMILES: C[C@@]1(c2nc(NC(=O)c3ncc(C(F)(F)F)cc3Cl)ccc2F)CO[C@@](C)(C(F)(F)F)C(N)=N1 [Compound 1, N-(6-((3R,6R)-5-amino-3,6-dimethyl-6-(trifluoromethyl)-3,6-dihydro-2H-1,4-oxazin-3-yl)-5-fluoropyridin-2-yl)-3-chloro-5-(trifluoromethyl)picolinamide]
- Aβ40 in CSF percent change from baseline, Min-Max (Aβ40; single-dose 300 mg, 34 h): −84-−69%
- Aβ40 in CSF percent change from baseline, Mean (SD) (Aβ40; single-dose 750 mg, 12 h): −36.2 (13.58) %
- Aβ40 in CSF percent change from baseline, Median (Aβ40; single-dose 750 mg, 12 h): −38.6%
- Aβ40 in CSF percent change from baseline, Min-Max (Aβ40; single-dose 750 mg, 12 h): −53-−10%
- Aβ40 in CSF percent change from baseline, Mean (SD) (Aβ40; single-dose 750 mg, 24 h): −67.4 (15.54) %
- Aβ40 in CSF percent change from baseline, Median (Aβ40; single-dose 750 mg, 24 h): −70.6%
- Aβ40 in CSF percent change from baseline, Min-Max (Aβ40; single-dose 750 mg, 24 h): −82-−36%
- Aβ40 in CSF percent change from baseline, Mean (SD) (Aβ40; single-dose 750 mg, 34 h): −79.1 (8.88) %
- Aβ40 in CSF percent change from baseline, Median (Aβ40; single-dose 750 mg, 34 h): −82.3%
- Aβ40 in CSF percent change from baseline, Min-Max (Aβ40; single-dose 750 mg, 34 h): −87-−60%
- Aβ42 % change from baseline, Mean (SD) (Aβ42 [1]; 10 mg, E4 heterozygotes): −59 (11) %
- Aβ42 % change from baseline, Median (Aβ42 [1]; 10 mg, E4 heterozygotes): −64%
- Aβ42 % change from baseline, Mean (SD) (Aβ42 [1]; 10 mg, E4 non-carriers): −58 (11) %
- Aβ42 % change from baseline, Median (Aβ42 [1]; 10 mg, E4 non-carriers): −59%
- Aβ42 % change from baseline, Mean (SD) (Aβ42 [1]; 30 mg, E4 non-carriers): −80 (6) %
- Aβ42 % change from baseline, Median (Aβ42 [1]; 30 mg, E4 non-carriers): −82%
- Aβ42 % change from baseline, Mean (SD) (Aβ42 [1]; 90 mg, E4 heterozygotes): −87 (2) %
- Aβ42 % change from baseline, Median (Aβ42 [1]; 90 mg, E4 heterozygotes): −87%
- Aβ42 % change from baseline, Mean (SD) (Aβ42 [1]; 90 mg, E4 non-carriers): −86 (5) %
- Aβ42 % change from baseline, Median (Aβ42 [1]; 90 mg, E4 non-carriers): −87%
- Aβ42 % change from baseline, Mean (SD) (Aβ42 [1]; 300 mg, E4 heterozygotes (n 1)): −89%
- Aβ42 % change from baseline, Median (Aβ42 [1]; 300 mg, E4 heterozygotes (n 1)): −89%
- Aβ42 % change from baseline, Mean (SD) (Aβ42 [1]; 300 mg, E4 non-carriers): −92 (1) %
- Aβ42 % change from baseline, Median (Aβ42 [1]; 300 mg, E4 non-carriers): −91%
- Aβ42 % change from baseline, Mean (SD) (Aβ42 [2]; 2 mg, E4 heterozygotes): −23 (9) %
- Aβ42 % change from baseline, Median (Aβ42 [2]; 2 mg, E4 heterozygotes): −23%
- Aβ42 % change from baseline, Mean (SD) (Aβ42 [2]; 2 mg, E4 non-carriers): −24 (9) %
- Aβ42 % change from baseline, Median (Aβ42 [2]; 2 mg, E4 non-carriers): −21%
- Aβ42 % change from baseline, Mean (SD) (Aβ42 [2]; 10 mg, E4 heterozygotes): −66 (7) %
- Aβ42 % change from baseline, Median (Aβ42 [2]; 10 mg, E4 heterozygotes): −63%
- Aβ42 % change from baseline, Mean (SD) (Aβ42 [2]; 10 mg, E4 non-carriers): −65 (5) %
- Aβ42 % change from baseline, Median (Aβ42 [2]; 10 mg, E4 non-carriers): −66%
- Aβ42 % change from baseline, Mean (SD) (Aβ42 [2]; 35 mg, E4 heterozygotes): −83 (5) %
- Aβ42 % change from baseline, Median (Aβ42 [2]; 35 mg, E4 heterozygotes): −85%
- Aβ42 % change from baseline, Mean (SD) (Aβ42 [2]; 35 mg, E4 non-carriers): −81 (6) %
- Aβ42 % change from baseline, Median (Aβ42 [2]; 35 mg, E4 non-carriers): −83%
- Aβ42 % change from baseline, Mean (SD) (Aβ42 [2]; 85 mg, E4 heterozygotes): −88 (2) %
- Aβ42 % change from baseline, Median (Aβ42 [2]; 85 mg, E4 heterozygotes): −88%
- Aβ42 % change from baseline, Mean (SD) (Aβ42 [2]; 85 mg, E4 non-carriers): −90 (2) %
- Aβ42 % change from baseline, Median (Aβ42 [2]; 85 mg, E4 non-carriers): −90%
- Aβ42 in CSF percent change from baseline, Difference (90% CI) Cmpd 1-Placebo (Aβ42 [2]; month 3, 2 mg QD): −21.24 (−24.28, −18.21) %
- Aβ42 in CSF percent change from baseline, LSmean (SE) (Aβ42 [2]; month 3, 2 mg QD): −24.00 (1.277) %
- Aβ42 in CSF percent change from baseline, Difference (90% CI) Cmpd 1-Placebo (Aβ42 [2]; month 3, 10 mg QD): −61.39 (−64.47, −58.31) %
- Aβ42 in CSF percent change from baseline, LSmean (SE) (Aβ42 [2]; month 3, 10 mg QD): −64.15 (1.308) %
- Aβ42 in CSF percent change from baseline, Difference (90% CI) Cmpd 1-Placebo (Aβ42 [2]; month 3, 35 mg QD): −79.73 (−82.73, −76.73) %
- Aβ42 in CSF percent change from baseline, LSmean (SE) (Aβ42 [2]; month 3, 35 mg QD): −82.49 (1.250) %
- Aβ42 in CSF percent change from baseline, Difference (90% CI) Cmpd 1-Placebo (Aβ42 [2]; month 3, 85 mg QD): −86.62 (−89.76, −83.49) %
- Aβ42 in CSF percent change from baseline, LSmean (SE) (Aβ42 [2]; month 3, 85 mg QD): −89.38 (1.348) %
- Formic acid soluble Aβ42 change vs vehicle (Aβ42 [3]; APP23, 0.03 g/kg vs vehicle): −16.3%
- Formic acid soluble Aβ42 change vs vehicle (Aβ42 [3]; APP23, 0.3 g/kg vs vehicle): −86.2%
